Data as given in PubChem BioAssay (NCI).
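All cell lines were grown in 96-well plates and treated with compound for 48 hours. Abbreviation: GI50, concentration required for 50% inhibition of growth. TGI: total growth inhibition.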

Key:
Experiment in all cases: DTP human tumour cell line panel, 48 h
[1] = system: MDA-MB-231 breast
[2] = system: LOX IMVI melanoma
[3] = system: 786-0 renal
[4] = system: A549 NSCLC
[5] = system: MCF7 breast
[6] = system: NCI/ADR-RES ovarian
[7] = system: SF-268 CNS
[8] = system: SNB-19 CNS
[9] = system: OVCAR-4 ovarian
[10] = system: HCT-15 colon
[11] = system: SN12C renal
[12] = system: M14 melanoma
[13] = system: TK-10 renal
[14] = system: U251 CNS
[15] = system: BT-549 breast
[16] = system: K-562 leukemia
[17] = system: SK-MEL-5 melanoma
[18] = system: MDA-MB-435
[19] = system: T-47D breast
[20] = system: A498 renal
[21] = system: DU-145 prostate
[22] = system: SW-620 colon
[23] = system: HL-60(TB) leukemia
[24] = system: HOP-62 NSCLC
[25] = system: UACC-62 melanoma
[26] = system: SNB-75 CNS
[27] = system: OVCAR-5 ovarian
[28] = system: SF-539 CNS
[29] = system: HCC-2998 colon
[30] = system: NCI-H460 lung
[31] = system: SK-MEL-28 melanoma
[32] = system: ACHN renal
[33] = system: NCI-H226 lung
[34] = system: HT29 colon
[35] = system: MALME-3M melanoma
[36] = system: RPMI-8226 leukemia
[37] = system: HOP-92 NSCLC
[38] = system: SK-MEL-2 melanoma
[39] = system: PC-3 prostate
[40] = system: OVCAR-8 ovarian
[41] = system: COLO 205 colon
[42] = system: HCT-116 colon
[43] = system: NCI-H23 lung
[44] = system: MOLT-4 leukemia
[45] = system: SR leukemia
[46] = system: IGROV1 ovarian
[47] = system: OVCAR-3 ovarian
[48] = system: CCRF-CEM leukemia
[49] = system: SK-OV-3 ovarian
[50] = system: KM12 colon
[51] = system: HS 578T breast
[52] = system: SF-295 CNS
[53] = system: EKVX NSCLC
[54] = system: RXF 393 renal
[55] = system: UO-31 renal
[56] = system: NCI-H522 lung

How did the GI50 [1] turn out when `NCC(=O)NS(=O)(=O)OC[C@H]1O[C@@H](n2cnc3c(N)ncnc32)[C@H](O)[C@@H]1O` was run?
The GI50 was 526 nM.

What about the TGI [1] of the same compound?
The TGI was 2620 nM.

What about the GI50 [2] of the same compound?
Its GI50 is 1680 nM.

And the TGI [2]?
The TGI was 3.52 µM.

And the GI50 [3]?
The GI50 was 1770 nM.

And the TGI [3]?
Its TGI is 3.47 µM.

And the GI50 [4]?
Its GI50 is 2320 nM.

And the TGI [4]?
The TGI was 5.27 µM.

And the GI50 [5]?
Its GI50 is 2850 nM.

What about the TGI [5] of the same compound?
Its TGI is 18.7 µM.

And the GI50 [6]?
Its GI50 is 2530 nM.

What about the TGI [6] of the same compound?
Its TGI is 9.67 µM.

What about the GI50 [7] of the same compound?
The GI50 was 503 nM.

What about the TGI [7] of the same compound?
Its TGI is 5.65 µM.

What about the GI50 [8] of the same compound?
The GI50 was 378 nM.

And the TGI [8]?
The TGI was 1480 nM.

And the GI50 [9]?
The GI50 was 388 nM.

And the TGI [9]?
The TGI was 2450 nM.

What about the GI50 [10] of the same compound?
Its GI50 is 2920 nM.

And the TGI [10]?
The TGI was 10.1 µM.

And the GI50 [11]?
The GI50 was 563 nM.

What about the TGI [11] of the same compound?
The TGI was 4.6 µM.

What about the GI50 [12] of the same compound?
The GI50 was 1810 nM.

What about the TGI [12] of the same compound?
Its TGI is 3.61 µM.

And the GI50 [13]?
Its GI50 is 2750 nM.

What about the TGI [13] of the same compound?
The TGI was 5.78 µM.

What about the GI50 [14] of the same compound?
The GI50 was 555 nM.

What about the TGI [14] of the same compound?
Its TGI is 1980 nM.

And the GI50 [15]?
Its GI50 is 2340 nM.

What about the TGI [15] of the same compound?
Its TGI is 5.56 µM.

What about the GI50 [16] of the same compound?
The GI50 was 3.71 µM.

What about the TGI [16] of the same compound?
The TGI was 11.8 µM.

What about the GI50 [17] of the same compound?
Its GI50 is 1850 nM.

What about the TGI [17] of the same compound?
The TGI was 3.34 µM.

And the GI50 [18]?
The GI50 was 1840 nM.

What about the TGI [18] of the same compound?
The TGI was 3.49 µM.

And the GI50 [19]?
Its GI50 is 2320 nM.

And the TGI [19]?
The TGI was 9.21 µM.

And the GI50 [20]?
Its GI50 is 1600 nM.

And the TGI [20]?
Its TGI is 3.21 µM.

And the GI50 [21]?
Its GI50 is 699 nM.

What about the TGI [21] of the same compound?
The TGI was 5.61 µM.

What about the GI50 [22] of the same compound?
The GI50 was 3.71 µM.

What about the TGI [22] of the same compound?
Its TGI is 24.6 µM.

What about the GI50 [23] of the same compound?
The GI50 was 2780 nM.

What about the TGI [23] of the same compound?
Its TGI is 6.95 µM.

And the GI50 [24]?
Its GI50 is 368 nM.

And the TGI [24]?
The TGI was 1680 nM.

And the GI50 [25]?
The GI50 was 1850 nM.

What about the TGI [25] of the same compound?
The TGI was 3.78 µM.

And the GI50 [26]?
The GI50 was 1140 nM.

What about the TGI [26] of the same compound?
The TGI was 3.32 µM.

And the GI50 [27]?
The GI50 was 750 nM.

What about the TGI [27] of the same compound?
Its TGI is 4.1 µM.

What about the GI50 [28] of the same compound?
The GI50 was 1430 nM.

What about the TGI [28] of the same compound?
Its TGI is 3.58 µM.

What about the GI50 [29] of the same compound?
The GI50 was 2040 nM.

And the TGI [29]?
Its TGI is 4.34 µM.

And the GI50 [30]?
Its GI50 is 3.23 µM.

What about the TGI [30] of the same compound?
The TGI was 10.1 µM.

And the GI50 [31]?
Its GI50 is 1930 nM.

And the TGI [31]?
The TGI was 4.14 µM.

What about the GI50 [32] of the same compound?
Its GI50 is 2890 nM.

And the TGI [32]?
The TGI was 8.37 µM.

What about the GI50 [33] of the same compound?
The GI50 was 2000 nM.

What about the TGI [33] of the same compound?
The TGI was 3.77 µM.

What about the GI50 [34] of the same compound?
The GI50 was 2920 nM.

What about the TGI [34] of the same compound?
The TGI was 7.46 µM.

And the GI50 [35]?
Its GI50 is 1920 nM.

What about the TGI [35] of the same compound?
Its TGI is 3.87 µM.

What about the GI50 [36] of the same compound?
The GI50 was 3.29 µM.

And the TGI [36]?
The TGI was 10.1 µM.

And the GI50 [37]?
The GI50 was 2970 nM.

And the TGI [37]?
The TGI was 6.78 µM.

And the GI50 [38]?
The GI50 was 2220 nM.

What about the TGI [38] of the same compound?
The TGI was 4.69 µM.

And the GI50 [39]?
Its GI50 is 2660 nM.

What about the TGI [39] of the same compound?
Its TGI is 6.47 µM.

And the GI50 [40]?
The GI50 was 2480 nM.

And the TGI [40]?
The TGI was 7.59 µM.

What about the GI50 [41] of the same compound?
Its GI50 is 2270 nM.

What about the TGI [41] of the same compound?
The TGI was 6.14 µM.

What about the GI50 [42] of the same compound?
The GI50 was 3.14 µM.

What about the TGI [42] of the same compound?
The TGI was 9.19 µM.

And the GI50 [43]?
Its GI50 is 2560 nM.

What about the TGI [43] of the same compound?
Its TGI is 7.04 µM.

What about the GI50 [44] of the same compound?
The GI50 was 2620 nM.

And the TGI [44]?
The TGI was 8.86 µM.

What about the GI50 [45] of the same compound?
The GI50 was 936 nM.

What about the TGI [45] of the same compound?
Its TGI is over 100 µM.

What about the GI50 [46] of the same compound?
Its GI50 is 3.04 µM.

What about the TGI [46] of the same compound?
Its TGI is 7.68 µM.

What about the GI50 [47] of the same compound?
Its GI50 is 2010 nM.

And the TGI [47]?
Its TGI is 4.48 µM.

And the GI50 [48]?
Its GI50 is 3.71 µM.

What about the TGI [48] of the same compound?
Its TGI is over 100 µM.

And the GI50 [49]?
The GI50 was 2870 nM.

What about the TGI [49] of the same compound?
The TGI was 7.94 µM.

And the GI50 [50]?
Its GI50 is 3.22 µM.

And the TGI [50]?
Its TGI is 14.4 µM.

What about the GI50 [51] of the same compound?
Its GI50 is 2890 nM.

And the TGI [51]?
Its TGI is 9.13 µM.

What about the GI50 [52] of the same compound?
Its GI50 is 861 nM.

And the TGI [52]?
The TGI was 2560 nM.

And the GI50 [53]?
The GI50 was 2580 nM.

What about the TGI [53] of the same compound?
The TGI was 8.88 µM.

What about the GI50 [54] of the same compound?
Its GI50 is 2110 nM.

And the TGI [54]?
Its TGI is 4.2 µM.

What about the GI50 [55] of the same compound?
Its GI50 is 1710 nM.

What about the TGI [55] of the same compound?
Its TGI is 3.25 µM.

What about the GI50 [56] of the same compound?
Its GI50 is 1750 nM.

And the TGI [56]?
The TGI was 3.85 µM.
